Laboratory results from BindingDB's records for doi:10.1074/jbc.M113.507756 (University of Otago Christchurch, 2013).

How the values were obtained:
Lactoperoxidase = Lactoperoxidase (Bos taurus, UniProt P80025); experiment: LPO/TPO Selectivity Assay
Description: (§1) The halogenation activities of LPO (EC 1.11.1.7) and TPO (EC 1.11.1.8) were determined using a modified method of that described previously [Ferrari et al., J. Inorg. Biochem., 68:61-69].

Thyroid peroxidase = biological target: T1, Thyroid peroxidase (Homo sapiens, UniProt P07202); experiment: LPO/TPO Selectivity Assay
T1 sequence (P07202 whole entry): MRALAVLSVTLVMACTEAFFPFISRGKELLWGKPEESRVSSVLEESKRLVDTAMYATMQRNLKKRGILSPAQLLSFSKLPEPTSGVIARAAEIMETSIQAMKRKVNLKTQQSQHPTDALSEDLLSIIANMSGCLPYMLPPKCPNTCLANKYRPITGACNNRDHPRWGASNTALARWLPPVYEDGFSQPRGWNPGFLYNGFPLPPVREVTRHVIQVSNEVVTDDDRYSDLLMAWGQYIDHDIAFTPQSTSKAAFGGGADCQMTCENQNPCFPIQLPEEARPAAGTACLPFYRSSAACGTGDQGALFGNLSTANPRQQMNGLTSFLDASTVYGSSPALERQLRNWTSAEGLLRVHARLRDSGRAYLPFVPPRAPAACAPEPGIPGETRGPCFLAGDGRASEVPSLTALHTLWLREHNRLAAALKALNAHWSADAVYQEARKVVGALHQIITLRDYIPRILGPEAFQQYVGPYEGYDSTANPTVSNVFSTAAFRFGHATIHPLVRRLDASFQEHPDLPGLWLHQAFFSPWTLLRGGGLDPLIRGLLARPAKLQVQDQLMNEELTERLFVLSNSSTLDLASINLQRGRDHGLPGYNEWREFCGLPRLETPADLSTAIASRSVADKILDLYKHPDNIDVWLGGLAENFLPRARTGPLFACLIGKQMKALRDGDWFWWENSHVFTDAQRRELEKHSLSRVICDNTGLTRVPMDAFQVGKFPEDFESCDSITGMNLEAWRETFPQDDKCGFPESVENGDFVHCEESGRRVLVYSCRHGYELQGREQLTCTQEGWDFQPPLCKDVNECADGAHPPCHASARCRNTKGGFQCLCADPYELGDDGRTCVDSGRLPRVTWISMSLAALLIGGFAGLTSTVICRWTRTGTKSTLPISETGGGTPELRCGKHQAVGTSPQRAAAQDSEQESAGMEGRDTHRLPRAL
Description: as §1

Myeloperoxidase [1] = biological target: T2, Myeloperoxidase (Homo sapiens, UniProt P05164); experiment: Myeloperoxidase Assay; settings: pH 6.5
T2 sequence (P05164 whole entry): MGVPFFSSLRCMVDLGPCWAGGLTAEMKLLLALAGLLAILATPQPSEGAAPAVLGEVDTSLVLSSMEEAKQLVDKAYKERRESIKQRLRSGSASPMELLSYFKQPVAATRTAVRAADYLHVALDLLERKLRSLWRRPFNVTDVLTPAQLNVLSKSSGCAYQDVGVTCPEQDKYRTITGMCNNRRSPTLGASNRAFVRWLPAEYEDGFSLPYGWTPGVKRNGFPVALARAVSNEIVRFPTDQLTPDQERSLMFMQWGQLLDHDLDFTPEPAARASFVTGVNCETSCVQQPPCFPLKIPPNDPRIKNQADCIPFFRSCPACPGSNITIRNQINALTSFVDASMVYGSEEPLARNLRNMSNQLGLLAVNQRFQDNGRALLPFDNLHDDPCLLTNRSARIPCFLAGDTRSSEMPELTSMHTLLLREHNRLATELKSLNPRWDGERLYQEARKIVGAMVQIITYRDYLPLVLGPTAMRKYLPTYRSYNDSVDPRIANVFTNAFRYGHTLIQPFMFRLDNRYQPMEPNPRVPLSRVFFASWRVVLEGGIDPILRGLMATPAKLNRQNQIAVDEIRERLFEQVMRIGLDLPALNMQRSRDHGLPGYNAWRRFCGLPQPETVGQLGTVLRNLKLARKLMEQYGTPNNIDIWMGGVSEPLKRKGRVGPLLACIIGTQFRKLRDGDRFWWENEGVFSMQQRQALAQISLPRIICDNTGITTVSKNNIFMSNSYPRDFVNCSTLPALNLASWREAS
Description: Assays were performed at 22 °C with 2 nM MPO and 10 μM hydrogen peroxide (H2O2) in 20 mM NaH2PO4 buffer, pH 6.5 containing 140 mM NaCl, 10 mM taurine, and 1 mM L-tyrosine. Inhibitor compounds were preincubated with MPO for 15 min prior to the addition of H2O2, and the accumulation of taurine chloramine was determined after 1 min.

Myeloperoxidase [2] = biological target: T2, Myeloperoxidase; experiment: Surface Plasmon Resonance (SPR); settings: pH 5
Description: Binding kinetics were determined by surface plasmon resonance (SPR) using a Biacore S51 (Biacore, Uppsala, Sweden). MPO (50 μg/ml dissolved in 10 mM sodium acetate, pH 5.0) was immobilized onto the surface of CM5 sensor chips (Biacore) using surface amine coupling. One of the spots on the sensor surface was left without MPO to control for nonspecific binding. The signal observed in response to analyte binding was as expected linearly related to the amount of immobilized ligand, and 10,000 response units was routinely used to characterize compoundbinding (data not shown). Compounds were dissolved in binding buffer (10 mM HEPES, pH 7.4, 150 mM NaCl, 3 mM Na2EDTA, 0.005% (w/v) surfactant P20, 1% (v/v) DMSO final), and association was assessed during 60-210-s injections. After this time, analyte injection was terminated, and the chip surface was perfused with binding buffer at 30 μl/min for 4-12 min to monitor compound dissociation.

Row | IC50 (Lactoperoxidase) [nM] | IC50 (Thyroid peroxidase) [nM] | IC50 (Myeloperoxidase [1]) [nM] | Kd (Myeloperoxidase [2]) [nM] | Compound
1 | 6300 | 1590 |  |  | O=C(NO)c1c[nH]c(NCc2cc(C(F)(F)F)cc(C(F)(F)F)c2)nc1=O [2-(3,5-bistrifluoromethylbenzylamino)-6-oxo-1H-pyrimidine-5-carbohydroxamic acid (HX1)]
2 | 2000 | 1590 | 790 | 2000 | O=C(NO)c1c[nH]c(NCc2ccccc2)nc1=O [2-(benzylamino)-6-oxo-3H-pyrimidine-5-carbohydroxamic acid (HX3)]
3 | 40 | 63 | 25.1 | 63 | O=C(NO)c1ccc(Cc2ccccc2)cc1O [4-benzyl-2-hydroxybenzenecarbohydroxamic acid (HX2)]
4 |  | 2000 | 25000 |  | O=C(NO)c1ccccc1O [Salicylic hydroxamic acid]
